US8846719B2, “Isoxazolo-pyridine derivatives” (Roche Palo Alto LLC, priority 2007, dated 2014)

Target: human GABA A receptor α5β3γ2 (Homo sapiens (Human), UniProt P18507+P31644)
Assay: [3H]flumazenil competition binding assay, human GABA A α5β3γ2 receptors expressed in HEK293 cells
Conditions: human receptor; displacement of [3H]flumazenil (0.5 nM); means of two determinations; read-out: hKi GABAAa5
In short: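 Competition for [3H]flumazenil binding on membranes of HEK293 cells transiently transfected with human α5β3γ2 receptors, in Krebs-tris buffer pH 7.5.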

Structure (SMILES) | Ki [nM]
Cc1onc(-c2ccc(F)cn2)c1COc1ccc(C(=O)NC(C)(C)CO)cn1 [Example 291, 6-[3-(5-Fluoro-pyridin-2-yl)-5-methyl-isoxazol-4-ylmethoxy](2-hydroxy-1,1-dimethyl-ethyl)-nicotinamide] | 1.2
O=C(NCC(F)(F)F)c1ccc(OCc2conc2-c2ccc(F)cn2)nc1 [Example 369, 6-[3-(5-Fluoro-pyridin-2-yl)-isoxazol-4-ylmethoxy]-(2,2,2-trifluoro-ethyl)-nicotinamide] | 9.3
Cc1onc(-c2ccccc2)c1COc1ccc(C(=O)NCCOC(C)C)cn1 [Example 189, N-(2-Isopropoxy-ethyl)-6-(5-methyl-3-phenyl-isoxazol-4-ylmethoxy)-nicotinamide] | 41.3
Cc1onc(-c2ccccc2)c1COc1ccc(C(=O)N[C@H](CO)C(C)C)cn1 [Example 206, N—((S)-1-Hydroxymethyl-2-methyl-propyl)-6-(5-methyl-3-phenyl-isoxazol-4-ylmethoxy)-nicotinamide] | 1.8
O=C(NCC(F)(F)F)c1ccc(OCc2conc2-c2ccccn2)nc1 [Example 362, 6-(3-Pyridin-2-yl-isoxazol-4-ylmethoxy)-N-(2,2,2-trifluoro-ethyl)-nicotinamide] | 8
Cc1onc(-c2ccccc2F)c1COc1ccc(C(=O)NC(C)C)cn1 [Example 86, 6-[3-(2-Fluoro-phenyl)-5-methyl-isoxazol-4-ylmethoxy]-N-isopropyl-nicotinamide] | 3.6
Cc1onc(-c2ccncn2)c1COc1ccc(C(=O)N2CCOCC2)cn1 [Example 316, [6-(5-Methyl-3-pyrimidin-4-yl-isoxazol-4-ylmethoxy)-pyridin-3-yl]-morpholin-4-yl-methanone] | 36.2
Cc1onc(-c2ccccn2)c1COc1ccc(C(=O)N2CCS(=O)(=O)CC2)cn1 [Example 276, (1,1-Dioxo-1,6-thiomorpholin-4-yl)-[6-(5-methyl-3-pyridin-2-yl-isoxazol-4-ylmethoxy)-pyridin-3-yl]-methanone] | 10.1
O=C(NCC(F)(F)F)c1ccc(OCc2conc2-c2ccc(Cl)cc2)nc1 [Example 342, 6-[3-(4-Chloro-phenyl)-isoxazol-4-ylmethoxy]-N-(2,2,2-trifluoro-ethyl)-nicotinamide] | 15.1
Cc1onc(-c2ccccc2)c1COc1cc(C(F)(F)F)c(C(=O)NC(C)C)cn1 [Example 62, N-Isopropyl-6-(5-methyl-3-phenyl-isoxazol-4-ylmethoxy)-4-trifluoromethyl-nicotinamide] | 14.6
Cc1onc(-c2ccccc2)c1COc1ccc([S+](C)[O-])cn1 (stereo not drawn) [Example 248, 5-Methanesulfinyl-2-(5-methyl-3-phenyl-isoxazol-4-ylmethoxy)-pyridine] | 28.1
O=C(NCC1CC1)c1ccc(OCc2conc2-c2ccccn2)nc1 [Example 361, N-Cyclopropylmethyl-6-(3-pyridin-2-yl-isoxazol-4-ylmethoxy)-nicotinamide] | 19
Cc1onc(-c2cccc(Cl)c2)c1COc1ccc(C(=O)NCC2CC2)cn1 [Example 99, 6-[3-(3-Chloro-phenyl)-5-methyl-isoxazol-4-ylmethoxy]-N-cyclopropylmethyl-nicotinamide] | 8.1
Cc1onc(-c2ccc(F)cc2)c1COc1ccc(C(=O)NC(C)C)cn1 [Example 107, 6-[3-(4-Fluoro-phenyl)-5-methyl-isoxazol-4-ylmethoxy]-N-isopropyl-nicotinamide] | 0.7
Cc1onc(-c2ccccc2)c1CNc1ccc(C(=O)NCCN2CCCC2=O)cn1 [Example 163, 6-[(5-Methyl-3-phenyl-isoxazol-4-ylmethyl)-amino]-N-[2-(2-oxo-pyrrolidin-1-yl)-ethyl]-nicotinamide] | 37.3
O=C(NCCCO)c1ccc(OCc2conc2-c2ccc(Cl)cc2)nc1 [Example 348, 6-[3-(4-Chloro-phenyl)-isoxazol-4-ylmethoxy]-N-(3-hydroxy-propyl)-nicotinamide] | 10.3
Cc1onc(-c2ccccc2)c1COc1ccc(C#N)cn1 [Example 5, 6-(5-Methyl-3-phenyl-isoxazol-4-ylmethoxy)-nicotinonitrile] | 13.1
Cc1onc(-c2ccc(Cl)cc2)c1COc1ccc(C(=O)O)cn1 [Example 116, 6-[3-(4-Chloro-phenyl)-5-methyl-isoxazol-4-ylmethoxy]-nicotinic acid] | 22.3
CC(C)(CO)NC(=O)c1ccc(OCc2conc2-c2ccc(F)cn2)nc1 [Example 368, 6-[3-(5-Fluoro-pyridin-2-yl)-isoxazol-4-ylmethoxy]-(2-hydroxy-1,1-dimethyl-ethyl)-nicotinamide] | 44.9
CCNC(=O)c1ccc(OCc2c(-c3ccccn3)noc2C)nc1 [Example 280, Ethyl-6-(5-methyl-3-pyridin-2-yl-isoxazol-4-ylmethoxy)-nicotinamide] | 1.1

Continued, values first:

Ki [nM] | Structure (SMILES)
4.7 | Cc1onc(-c2ccccc2)c1COc1ccc(C(=O)OC(C)C)cn1 [Example 83, 6-(5-Methyl-3-phenyl-isoxazol-4-ylmethoxy)-nicotinic acid isopropyl ester]
1.7 | Cc1onc(-c2ccccc2)c1COc1ccc(C(=O)N[C@H](C)CO)cn1 [Example 195, N—((R)-2-Hydroxy-1-methyl-ethyl)-6-(5-methyl-3-phenyl-isoxazol-4-ylmethoxy)-nicotinamide]
4.7 | Cc1onc(-c2ccc(F)c(F)c2)c1COc1ccc(C(=O)NC(C)C)cn1 [Example 126, 6-[3-(3,4-Difluoro-phenyl)-5-methyl-isoxazol-4-ylmethoxy]-N-isopropyl-nicotinamide]
2.4 | Cc1onc(-c2ccc(F)cc2F)c1COc1ccc(C(=O)NC(C)C)cn1 [Example 263, 6-[3-(2,4-Difluoro-phenyl)-5-methyl-isoxazol-4-ylmethoxy]-N-isopropyl-nicotinamide]
4.6 | Cc1onc(-c2ccccc2)c1COc1ccc(C(=O)NCC2CCOC2)cn1 (stereo not drawn) [Example 77, 6-(5-Methyl-3-phenyl-isoxazol-4-ylmethoxy)-N-(tetrahydro-furan-3-ylmethyl)-nicotinamide]
9.4 | CC(=O)Nc1ccc(OCc2c(-c3ccccc3)noc2C)nc1 [Example 179, N-[6-(5-Methyl-3-phenyl-isoxazol-4-ylmethoxy)-pyridin-3-yl]-acetamide]
21.6 | Cc1onc(-c2ccccc2)c1COc1ccc(C(=O)NCc2cc(C3CC3)[nH]n2)cn1 [Example 20, N-(5-Cyclopropyl-1H-pyrazol-3-ylmethyl)-6-(5-methyl-3-phenyl-isoxazol-4-ylmethoxy)-nicotinamide]
4.3 | Cc1onc(-c2cc(F)ccc2F)c1COc1ccc(C(=O)NC2CCOCC2)cn1 [Example 266, 6-[3-(2,5-Difluoro-phenyl)-5-methyl-isoxazol-4-ylmethoxy]-N-(tetrahydro-pyran-4-yl)-nicotinamide]
1.9 | Cc1onc(-c2ccccc2)c1COc1ccc(C(=O)N[C@@H](C)C(F)(F)F)cn1 [Example 235, 6-(5-Methyl-3-phenyl-isoxazol-4-ylmethoxy)-N—((S)-2,2,2-trifluoro-1-methyl-ethyl)-nicotinamide]
4.1 | Cc1onc(-c2ccc(Cl)cc2)c1COc1ccc(C(=O)NC(C)(C)CO)cn1 [Example 254, 6-[3-(4-Chloro-phenyl)-5-methyl-isoxazol-4-ylmethoxy]-N-(2-hydroxy-1,1-dimethyl-ethyl)-nicotinamide]
7.1 | CC(O)CNC(=O)c1ccc(OCc2conc2-c2ccc(Cl)cc2)nc1 (stereo not drawn) [Example 347, 6-[3-(4-Chloro-phenyl)-isoxazol-4-ylmethoxy]-N-(2-hydroxy-propyl)-nicotinamide]
26.5 | Cc1onc(-c2cccc(F)c2F)c1COc1ccc(C(=O)NC(C)C)cn1 [Example 261, 6-[3-(2,3-Difluoro-phenyl)-5-methyl-isoxazol-4-ylmethoxy]-N-isopropyl-nicotinamide]
2.8 | Cc1onc(-c2ccccc2)c1COc1ccc(C(=O)NCc2nc(C#N)cs2)cn1 [Example 21, N-(4-Cyano-thiazol-2-ylmethyl)-6-(5-methyl-3-phenyl-isoxazol-4-ylmethoxy)-nicotinamide]
13.4 | Cc1onc(-c2cccc(F)c2)c1COc1ccc(C(=O)N2CCS(=O)(=O)CC2)cn1 [Example 96, (1,1-Dioxo-1λ6-thiomorpholin-4-yl)-{6-[3-(3-fluoro-phenyl)-5-methyl-isoxazol-4-ylmethoxy]-pyridin-3-yl}-methanone]
2.1 | Cc1onc(-c2ccccc2)c1COc1ccc(C(=O)NCC2(O)CC2)cn1 [Example 194, N-(1-Hydroxy-cyclopropylmethyl)-6-(5-methyl-3-phenyl-isoxazol-4-ylmethoxy)-nicotinamide]
4.6 | Cc1onc(-c2ccccc2)c1COc1ccc(C(=O)NCc2ccccn2)cn1 [Example 22, 6-(5-Methyl-3-phenyl-isoxazol-4-ylmethoxy)-N-pyridin-2-ylmethyl-nicotinamide]
2.6 | Cc1onc(-c2ccccc2)c1COc1ccc(C(=O)NCCO)cn1 [Example 13, N-(2-Hydroxy-ethyl)-6-(5-methyl-3-phenyl-isoxazol-4-ylmethoxy)-nicotinamide]
39.5 | Cc1onc(-c2ccc(F)cc2)c1COc1ccc(C(=O)O)cn1 [Example 104, 6-[3-(4-Fluoro-phenyl)-5-methyl-isoxazol-4-ylmethoxy]-nicotinic acid]
0.3 | Cc1onc(-c2ccc(F)cn2)c1COc1ccc(C(=O)NCC(F)(F)F)cn1 [Example 294]
24.3 | CNC(=O)c1ccc(OCc2c(-c3ccccc3)noc2C(F)(F)F)nc1 [Example 129, N-Methyl-6-(3-phenyl-5-trifluoromethyl-isoxazol-4-ylmethoxy)-nicotinamide]
5.6 | Cc1onc(-c2ccncn2)c1COc1ccc(C(=O)NC2CC2)cn1 [Example 314, N-Cyclopropyl-6-(5-methyl-3-pyrimidin-4-yl-isoxazol-4-ylmethoxy)-nicotinamide]
10.7 | C[C@H](CO)NC(=O)c1ccc(OCc2conc2-c2ccc(Cl)cc2)nc1 [Example 354, 6-[3-(4-Chloro-phenyl)-isoxazol-4-ylmethoxy]-N—((R)-2-hydroxy-1-methyl-ethyl)-nicotinamide]
